{"source": "ChEMBL document CHEMBL3046956", "about": "“Photosynthetic Electron Transport Inhibitory Activity of 2-Aralkylamino-4-methyl-6-trifluoromethyl-1, 3, 5-triazine Derivatives” (J Pestic Sci, 1999)"}
{"test": "Potency index, ratio of pI50 for simazine to pI50 for test compound against photosynthetic electron transport in Spinacia oleracea (spinach) thylakoids using oxygen electrode by Boger method"}
{"molecule": "Cc1nc(NCc2ccc(F)cc2)nc(C(F)(F)F)n1", "Ratio": 10}
{"molecule": "Cc1nc(NCc2ccc(Br)cc2)nc(C(F)(F)F)n1", "Ratio": 10}
{"molecule": "Cc1nc(NCc2ccc(C(F)(F)F)cc2)nc(C(F)(F)F)n1", "Ratio": 10}
{"molecule": "Cc1nc(NCc2ccc([N+](=O)[O-])cc2)nc(C(F)(F)F)n1", "Ratio": 10}
{"molecule": "Cc1nc(NCc2ccc(Cl)cc2)nc(C(F)(F)F)n1", "Ratio": 10}
{"test": "Inhibition of photosynthetic electron transport in Spinacia oleracea (spinach) thylakoids using oxygen electrode by Boger method"}
{"molecule": "Cc1nc(NCc2ccc(Cl)cc2)nc(C(F)(F)F)n1", "pI50": 6.98}
{"molecule": "Cc1nc(NCc2ccccc2Cl)nc(C(F)(F)F)n1", "pI50": 5.95}
